Laboratory results taken from patent US20240390352A1, “PHARMACEUTICAL COMPOSITION FOR PREVENTING OR TREATING CANCER COMPRISING CARNITINE ACYLCARNITINE CARRIER INHIBITOR AND ANTITUMOR AGENT” (NEW CANCER CURE - BIO CO.,LTD., priority 2021, published 2024).
Values joined by “and” are separate entries in the source; they are usually repeats but may differ in a detail not shown here. Identical values can stand only once. “Also recorded” adds a separate entry of the source.

Columns and labels:
[1] = system: HCT-116 cells; experiment: SRB assay cancer cell growth rate, HCT-116; assay type: cell-based; conditions: relative to control (100%), 48 hours, KN510 200 μM, irinotecan 2.5 μM, 5-FU 5 μM, gemcitabine 2.5 μM, paclitaxel 10 nM, cisplatin 1 μM, alone or KN510 + anticancer drug
[2] = system: CAKI-1 cells; experiment: SRB assay cancer cell growth rate, CAKI-1; assay type: cell-based; conditions: relative to control (100%), 48 hours, KN510 200 μM, irinotecan 2.5 μM, 5-FU 5 μM, gemcitabine 2.5 μM, paclitaxel 10 nM, cisplatin 1 μM, alone or KN510 + anticancer drug
[3] = system: ACHN cells; experiment: SRB assay cancer cell growth rate, ACHN; assay type: cell-based; conditions: relative to control (100%), 48 hours, KN510 200 μM, irinotecan 2.5 μM, 5-FU 5 μM, gemcitabine 2.5 μM, paclitaxel 10 nM, cisplatin 1 μM, alone or KN510 + anticancer drug
[4] = system: UACC62 cells; experiment: SRB assay cancer cell growth rate, UACC62; assay type: cell-based; conditions: relative to control (100%), 48 hours, KN510 200 μM, irinotecan 2.5 μM, 5-FU 5 μM, gemcitabine 2.5 μM, paclitaxel 10 nM, cisplatin 1 μM, alone or KN510 + anticancer drug
[5] = system: UACC257 cells; experiment: SRB assay cancer cell growth rate, UACC257; assay type: cell-based; conditions: relative to control (100%), 48 hours, KN510 200 μM, irinotecan 2.5 μM, 5-FU 5 μM, gemcitabine 2.5 μM, paclitaxel 10 nM, cisplatin 1 μM, alone or KN510 + anticancer drug
[6] = system: OVCAR-8 cells; experiment: SRB assay cancer cell growth rate, OVCAR-8; assay type: cell-based; conditions: relative to control (100%), 48 hours, KN510 200 μM, irinotecan 2.5 μM, 5-FU 5 μM, gemcitabine 2.5 μM, paclitaxel 10 nM, cisplatin 1 μM, alone or KN510 + anticancer drug
[7] = system: A549 cells; experiment: SRB assay cancer cell growth rate, A549; assay type: cell-based; conditions: relative to control (100%), 48 hours, KN510 200 μM, irinotecan 2.5 μM, 5-FU 5 μM, gemcitabine 2.5 μM, paclitaxel 10 nM, cisplatin 1 μM, alone or KN510 + anticancer drug
[8] = system: PC-3 cells; experiment: SRB assay cancer cell growth rate, PC-3; assay type: cell-based; conditions: relative to control (100%), 48 hours, KN510 200 μM, irinotecan 2.5 μM, 5-FU 5 μM, gemcitabine 2.5 μM, paclitaxel 10 nM, cisplatin 1 μM, alone or KN510 + anticancer drug
[9] = system: SR cells; experiment: SRB assay cancer cell growth rate, SR; assay type: cell-based; conditions: relative to control (100%), 48 hours, KN510 200 μM, irinotecan 2.5 μM, 5-FU 5 μM, gemcitabine 2.5 μM, paclitaxel 10 nM, cisplatin 1 μM, alone or KN510 + anticancer drug
[10] = system: K562 cells; experiment: SRB assay cancer cell growth rate, K562; assay type: cell-based; conditions: relative to control (100%), 48 hours, KN510 200 μM, irinotecan 2.5 μM, 5-FU 5 μM, gemcitabine 2.5 μM, paclitaxel 10 nM, cisplatin 1 μM, alone or KN510 + anticancer drug
[11] = system: colon cancer cell lines HCT-116 cells and COLO-205 cells; experiment: Synergistic effect of omeprazole and anticancer drug, colon cancer cell lines; assay type: cell-based; conditions: anticancer drug combined with omeprazole (KN510) versus each treatment alone
[12] = system: renal cell carcinoma cell lines CAKI-1 and ACHN cells; experiment: Synergistic effect of omeprazole and anticancer drug, renal cancer cell lines; assay type: cell-based; conditions: anticancer drug combined with omeprazole (KN510) versus each treatment alone
[13] = system: liver cancer cell lines SK-HEP-1 cells and Huh-7 cells; experiment: Synergistic effect of omeprazole and anticancer drug, liver cancer cell lines; assay type: cell-based; conditions: anticancer drug combined with omeprazole (KN510) versus each treatment alone
[14] = system: glioblastoma (GBM) cell lines, U-87 MG cells and T87G cells; experiment: Synergistic effect of omeprazole and anticancer drug, glioblastoma cell lines; assay type: cell-based; conditions: anticancer drug combined with omeprazole (KN510) versus each treatment alone
[15] = system: melanoma cell lines UACC62 cells and UACC257 cells; experiment: Synergistic effect of omeprazole and anticancer drug, melanoma cell lines; assay type: cell-based; conditions: anticancer drug combined with omeprazole (KN510) versus each treatment alone
[16] = system: pancreatic ductal adenocarcinoma (PDAC) cell lines, MIA PaCa-2 cells and PANC-1 cells; experiment: Synergistic effect of omeprazole and anticancer drug, pancreatic cancer cell lines; assay type: cell-based; conditions: anticancer drug combined with omeprazole (KN510) versus each treatment alone
[17] = system: MKN-28 cells and AGS cells, stomach cancer cells; experiment: Synergistic effect of omeprazole and anticancer drug, stomach cancer cells; assay type: cell-based; conditions: anticancer drug combined with omeprazole (KN510) versus each treatment alone
[18] = system: ovarian cancer cells, OVCAR-8 cells and SK-OV-3 cells; experiment: Synergistic effect of omeprazole and anticancer drug, ovarian cancer cells; assay type: cell-based; conditions: anticancer drug combined with omeprazole (KN510) versus each treatment alone
[19] = system: A549 and H23 lung cancer cells; experiment: Synergistic effect of omeprazole and anticancer drug, lung cancer cells; assay type: cell-based; conditions: anticancer drug combined with omeprazole (KN510) versus each treatment alone
[20] = system: breast cancer cells, MDA-MB-231 cells and MCF-7 cells; experiment: Synergistic effect of omeprazole and anticancer drug, breast cancer cells; assay type: cell-based; conditions: anticancer drug combined with omeprazole (KN510) versus each treatment alone
[21] = system: prostate cancer cells, PC-3 cells and DU-145 cells; experiment: Synergistic effect of omeprazole and anticancer drug, prostate cancer cells; assay type: cell-based; conditions: anticancer drug combined with omeprazole (KN510) versus each treatment alone
[22] = system: leukemia cells, SR cells and K562 cells; experiment: Synergistic effect of omeprazole and anticancer drug, leukemia cells; assay type: cell-based; conditions: anticancer drug combined with omeprazole (KN510) versus each treatment alone
[23] = system: MIA PaCa-2 cells xenograft tumor; experiment: Pancreatic cancer xenograft tumor model; assay type: in vivo, Balb/c nude mice; conditions: irinotecan 20 mg/kg IP 1 days/week, alone or combined
Experimental: To determine the anticancer synergistic effects of omeprazole (KN510) and irinotecan co-administration in vivo, a pancreatic cancer xenograft tumor model was constructed and administered with the drugs.
Specifically, 6-8 week old Balb/c nude mice (Orient, Korea) were inoculated subcutaneously with MIA PaCa-2 cells (1×10^7) in 100 μl PBS using 1 ml syringe, and when the tumor size reached 100 mm^3, the mice were randomly divided into 4 groups with 4 mice per group, and then treated with drugs as shown in Table 14 below.
We also performed two separate experiments with omeprazole (KN510), one at a concentration of 50 mg/kg and the other at 100 mg/kg. • 1) Control (solvent treatment) • 2) Omeprazole (KN510) alone (50 mg/kg or 100 mg/kg, P.O. injection), • 3) Irinotecan alone (20 mg/kg, I.P injection), • 4) Omeprazole (KN510) (50 mg/kg or 100 mg/kg)+irinotecan (20 mg/kg/) as a combination treatment group
Primary tumor size was measured weekly using calipers. Tumor volumes were calculated using Equation 1 below, and data are expressed as mean (mean)+standard deviation (SD) values of mouse tumor volume per group.

[24] = experiment with KN510 50 mg/kg PO 5 days/week
[25] = experiment with KN510 100 mg/kg PO 5 days/week

| SMILES | HCT-116 growth rate average (%) [1] | CAKI-1 growth rate average (%) [2] | ACHN growth rate average (%) [3] | UACC62 growth rate average (%) [4] | UACC257 growth rate average (%) [5] | OVCAR-8 growth rate average (%) [6] | A549 growth rate average (%) [7] | PC-3 growth rate average (%) [8] | SR growth rate average (%) [9] | K562 growth rate average (%) [10] | synergistic effect of omeprazole and an anticancer drug in combination, colon cancer [11] | synergistic effect of omeprazole and an anticancer drug in combination, renal cell carcinoma [12] | synergistic effect of omeprazole and an anticancer drug in combination, liver cancer [13] | synergistic effect of omeprazole and an anticancer drug in combination, glioblastoma (GBM) [14] | synergistic effect of omeprazole and an anticancer drug in combination, melanoma [15] | synergistic effect of omeprazole and an anticancer drug in combination, pancreatic cancer (PDAC) [16] | synergistic effect of omeprazole and an anticancer drug in combination, stomach cancer [17] | synergistic effect of omeprazole and an anticancer drug in combination, ovarian cancer [18] | synergistic effect of omeprazole and an anticancer drug in combination, lung cancer [19] | synergistic effect of omeprazole and an anticancer drug in combination, breast cancer [20] | also measured |
| --- | --- | --- | --- | --- | --- | --- | --- | --- | --- | --- | --- | --- | --- | --- | --- | --- | --- | --- | --- | --- | --- |
| O=c1[nH]cc(F)c(=O)[nH]1 [5-FU, fluorouracil] | 41.59% | 47.91% | 48.97% | 52.14% | 62.17% | 27.12% | 27.36% | 55.19% | 96.15% | 99.83% | significantly inhibited; also recorded: Positive effect | significantly inhibited; also recorded: Positive effect | significantly inhibited; also recorded: Positive effect | Negative effect | significantly inhibited; also recorded: Positive effect | Negative effect | Negative effect | Negative effect | significantly inhibited; also recorded: Positive effect | Negative effect | synergistic effect of omeprazole and an anticancer drug in combination, prostate cancer [21]: Negative effect; synergistic effect of omeprazole and an anticancer drug in combination, leukemia [22]: significantly inhibited; also recorded: Positive effect |
| Nc1ccn([C@@H]2O[C@H](CO)[C@@H](O)C2(F)F)c(=O)n1 [Gemcitabine] | 16.32% | 2.30% | −2.82% | 53.65% | 30.97% | −14.25% | −16.60% | 32.17% | 53.15% | 53.51% | Negative effect | Negative effect | Negative effect | Negative effect | Negative effect | Negative effect | Negative effect | Negative effect | Negative effect | Negative effect | synergistic effect of omeprazole and an anticancer drug in combination, prostate cancer [21]: Negative effect; synergistic effect of omeprazole and an anticancer drug in combination, leukemia [22]: Negative effect |
| N.N.[Cl][Pt][Cl] [Cisplatin] | 100.00% | 88.17% | 78.57% | 62.76% | 76.16% | 51.47% | 99.46% | 82.60% | 93.52% | 102.62% | Negative effect | Negative effect | Negative effect | Negative effect | Negative effect | Negative effect | Negative effect | Positive effect | Negative effect | Negative effect | synergistic effect of omeprazole and an anticancer drug in combination, ovarian cancer ([18]; listed as cisplatin): significantly inhibited; synergistic effect of omeprazole and an anticancer drug in combination, prostate cancer [21]: Negative effect; synergistic effect of omeprazole and an anticancer drug in combination, leukemia [22]: Positive effect; synergistic effect of omeprazole and an anticancer drug in combination, leukemia ([22]; listed as cisplatin): significantly inhibited |
| COc1ccc2[nH]c([S+]([O-])Cc3ncc(C)c(OC)c3C)nc2c1 (stereo not drawn) [KN510, omeprazole] | 35.30% | 41.69% and 35.30% |  |  | 10.97% and 3.31% and 3.10% and 4.33% | 30.64% and 38.65% | 10.47% | 12.70% | 42.75% | 34.61% |  |  |  |  |  |  |  |  |  |  | Tumor volume, 2 week average [23, 24]: 143.01 mm^3; Tumor volume, 2 week average [23, 25]: 93.96 mm^3; Tumor volume, 3 week average [23, 24]: 675.69 mm^3; Tumor volume, 3 week average [23, 25]: 229.95 mm^3; Tumor volume, 4 week average [23, 24]: 965.63 mm^3; Tumor volume, 4 week average [23, 25]: 469.90 mm^3; Tumor volume, 5 week average [23, 24]: 1296.93 mm^3; Tumor volume, 5 week average [23, 25]: 843.25 mm^3 |
